# According to ChEMBL document CHEMBL1201862, “PubChem BioAssay data set” (2004):
#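 The compound was tested at five concentrations on cells cultured in 96-well plates, with a 48-hour exposure period. GI50: concentration for 50% inhibition of growth.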 The source made the active and inactive calls. Rule as the data show it: active = GI50 up to about 1.1 µM and inactive = higher.
# Tests used:
# Assay in all cases: DTP human tumour cell line panel, 48 h
# [1] = test system: A498
# [2] = test system: HCT-116
# [3] = test system: SN12C
# [4] = test system: K562
# [5] = test system: HCC 2998
# [6] = test system: SW-620
# [7] = test system: SK-OV-3
# [8] = test system: KM12
# [9] = test system: UACC-257
# [10] = test system: SK-MEL-5
# [11] = test system: SK-MEL-28
# [12] = test system: OVCAR-8
# [13] = test system: SR
# [14] = test system: IGROV-1
# [15] = test system: DU-145
# [16] = test system: SF-539
# [17] = test system: MOLT-4
# [18] = test system: U-251
# [19] = test system: SF-268
# [20] = test system: MCF7
# [21] = test system: CAKI-1
# [22] = test system: CCRF-CEM
# [23] = test system: PC-3
# [24] = test system: SNB-19
# [25] = test system: HCT-15
# [26] = test system: HL-60
# [27] = test system: NCI-H23
# [28] = test system: SK-MEL-2
# [29] = test system: MDA-MB-435
# [30] = test system: OVCAR-4
# [31] = test system: OVCAR-5
# [32] = test system: NCI-H460
# [33] = test system: M14
# [34] = test system: RPMI-8226
# [35] = test system: EKVX
# [36] = test system: BT-549
# [37] = test system: 786-0
# [38] = test system: TK-10
# [39] = test system: NCI/ADR-RES
# [40] = test system: NCI-H522
# [41] = test system: Hs-578T
# [42] = test system: HOP-62
# [43] = test system: RXF 393
# [44] = test system: MDA-MB-231
# [45] = test system: ACHN
# [46] = test system: NCI-H226
# [47] = test system: UO-31
# [48] = test system: MDA-N
# [49] = test system: HOP-92
# [50] = test system: UACC-62
# [51] = test system: Malme-3M
# [52] = test system: HT-29
# [53] = test system: A549
# [54] = test system: LOX IMVI
# [55] = test system: SNB-75
# [56] = test system: OVCAR-3
# [57] = test system: SF-295
# [58] = test system: T47D
# [59] = test system: COLO 205
smiles,measurement,setting,value
CCCCCCc1cc2cc(-c3csc(CC#N)n3)c(=O)oc2cc1O,GI50,[1],56 µM (inactive)
same,GI50,[2],5.89 µM (inactive)
same,GI50,[3],99.1 µM (inactive)
same,GI50,[4],> 69.2 µM (inactive)
same,GI50,[5],> 100 µM (inactive)
same,GI50,[6],26.2 µM (inactive)
same,GI50,[7],13.3 µM (inactive)
same,GI50,[8],22.5 µM (inactive)
same,GI50,[9],> 100 µM (inactive)
same,GI50,[10],32.7 µM (inactive)
same,GI50,[11],> 100 µM (inactive)
same,GI50,[12],13 µM (inactive)
same,GI50,[13],> 56.6 µM (inactive)
same,GI50,[14],29.8 µM (inactive)
same,GI50,[15],> 100 µM (inactive)
same,GI50,[16],5.71 µM (inactive)
same,GI50,[17],43.1 µM (inactive)
same,GI50,[18],6.4 µM (inactive)
same,GI50,[19],18.7 µM (inactive)
same,GI50,[20],> 49.4 µM (inactive)
same,GI50,[21],> 44.6 µM (inactive)
same,GI50,[22],> 49.2 µM (inactive)
same,GI50,[23],> 100 µM (inactive)
same,GI50,[24],14.4 µM (inactive)
same,GI50,[25],> 100 µM
same,GI50,[26],> 44.3 µM (inactive)
same,GI50,[27],22.1 µM (inactive)
same,GI50,[28],> 100 µM (inactive)
same,GI50,[29],> 100 µM (inactive)
same,GI50,[30],3.45 µM (inactive)
same,GI50,[31],> 100 µM (inactive)
same,GI50,[32],8.55 µM (inactive)
same,GI50,[33],> 100 µM (inactive)
same,GI50,[34],32.4 µM (inactive)
same,GI50,[35],> 100 µM (inactive)
same,GI50,[36],6.17 µM (inactive)
same,GI50,[37],7.62 µM (inactive)
same,GI50,[38],> 100 µM (inactive)
same,GI50,[39],6.35 µM (inactive)
same,GI50,[40],10.4 µM (inactive)
same,GI50,[41],12.4 µM (inactive)
same,GI50,[42],34.9 µM (inactive)
same,GI50,[43],> 33.2 µM (inactive)
same,GI50,[44],11.7 µM (inactive)
same,GI50,[45],21.9 µM (inactive)
same,GI50,[46],22.9 µM (inactive)
same,GI50,[47],27 µM (inactive)
same,GI50,[48],> 100 µM (inactive)
same,GI50,[49],7.48 µM (inactive)
same,GI50,[50],14.4 µM (inactive)
same,GI50,[51],> 100 µM (inactive)
same,GI50,[52],> 100 µM (inactive)
same,GI50,[53],> 100 µM (inactive)
same,GI50,[54],> 100 µM (inactive)
same,GI50,[55],32.1 µM (inactive)
same,GI50,[56],11.1 µM (inactive)
same,GI50,[57],36.6 µM (inactive)
same,GI50,[58],> 100 µM (inactive)
same,GI50,[59],> 100 µM (inactive)
CC1(Br)Cc2ccccc2C1=O (stereo not drawn),GI50,[1],21.9 µM (inactive)
same,GI50,[2],3.86 µM (inactive)
same,GI50,[3],7.59 µM (inactive)
same,GI50,[4],3.33 µM (inactive)
same,GI50,[5],> 100 µM (inactive)
same,GI50,[6],4.75 µM (inactive)
same,GI50,[7],9.06 µM (inactive)
same,GI50,[8],12.6 µM (inactive)
same,GI50,[9],9.53 µM (inactive)
same,GI50,[10],5.71 µM (inactive)
same,GI50,[11],2.29 µM (inactive)
same,GI50,[12],8.57 µM (inactive)
same,GI50,[13],2.45 µM (inactive)
same,GI50,[14],4.12 µM (inactive)
same,GI50,[15],13.7 µM (inactive)
same,GI50,[16],4.98 µM (inactive)
same,GI50,[17],2.13 µM (inactive)
same,GI50,[18],4.59 µM (inactive)
same,GI50,[19],4.68 µM (inactive)
same,GI50,[20],3.73 µM (inactive)
same,GI50,[21],8.71 µM (inactive)
same,GI50,[22],1.75 µM (inactive)
same,GI50,[23],10.3 µM (inactive)
same,GI50,[24],33.3 µM (inactive)
same,GI50,[25],7.78 µM
same,GI50,[26],2.79 µM (inactive)
same,GI50,[27],5.41 µM (inactive)
same,GI50,[28],10.1 µM (inactive)
same,GI50,[29],4.47 µM (inactive)
same,GI50,[30],6.89 µM (inactive)
same,GI50,[31],3.43 µM (inactive)
same,GI50,[32],> 10 µM (inactive)
same,GI50,[33],3.09 µM (inactive)
same,GI50,[34],5.65 µM (inactive)
same,GI50,[35],3.27 µM (inactive)
same,GI50,[36],1.7 µM (inactive)
same,GI50,[37],2.15 µM (inactive)
same,GI50,[38],16.1 µM (inactive)
same,GI50,[39],13.1 µM (inactive)
same,GI50,[40],4.14 µM (inactive)
same,GI50,[41],6.79 µM (inactive)
same,GI50,[42],15.3 µM (inactive)
same,GI50,[43],> 10 µM (inactive)
same,GI50,[44],6.92 µM (inactive)
same,GI50,[45],4.17 µM (inactive)
same,GI50,[46],2.34 µM (inactive)
same,GI50,[47],6.95 µM (inactive)
same,GI50,[48],3.92 µM (inactive)
same,GI50,[49],6.49 µM (inactive)
same,GI50,[50],1.29 µM (inactive)
same,GI50,[51],3.36 µM (inactive)
same,GI50,[52],4.36 µM (inactive)
same,GI50,[53],12.5 µM (inactive)
same,GI50,[54],3.09 µM (inactive)
same,GI50,[55],13 µM (inactive)
same,GI50,[56],8.99 µM (inactive)
same,GI50,[57],18.7 µM (inactive)
same,GI50,[58],9.31 µM (inactive)
same,GI50,[59],4.35 µM (inactive)
